Test results as given in patent US5728686A, “Alkylxanthine phosphonates and alkylxanthine phosphine oxides and their use as pharmaceuticals” (Hoechst Aktiengesellschaft, priority 1996, dated 1998).
≈ marks a conversion by molar mass, not a printed value. Read-outs that look alike come from different tables or passages of the source.

How the values were obtained:
[1] = test system: isolated guinea pig lung strips, Platelet activating factor (PAF); test: antagonist of PAF-induced contraction of isolated guinea pig lung strips; format: cell-based; settings: Cavia porcellus, read-out: Anticontractile action (lung), PAF: concentration range corresponding to the IC50 value
Description: 4. Activity as an antagonist of the contraction of isolated guinea pig lung strips
The test carried out is based on the same principle as the test indicated in the pharmacological test 3; however, lung strips are used here.
Preparation of the organ sections and experimental procedure:
The guinea pig is sacrificed under laughing gas anaesthesia. The entire pulmonary tract is exposed starting from the trachea. The lobes of the lung are cut in a circular fashion such that 3 mm wide strips are formed. The strips of the upper lobes are divided in order to obtain a total of six approximately equal size strips. The strips are suspended in the organ baths under a preload of 4 g. The nutrient solutions used are modified Krebs Henseleit solutions. When using "Platelet activating factor" (PAF) as an […], the composition of this solution corresponds to that for the agonist SP in "Test 3"; for the agonist LTD4 a Krebs Henseleit solution as in the case of the agonist KCl (Test 3) is used. 95% by volume O2, 5% by volume CO2 is used for bubbling through the bath; the bath temperature is 37° C. The experimental procedure is carried out in a therapeutically cumulative methodology, using the dosage graduations 1, 3, 6 and 10 μg/ml.
The experimental animals, organ bath, vehicles and manner of administration correspond to that stated in pharmacological test 3.
All numerical values are indicated in the unit μg/ml and relate to the concentration range of tested compound of the formula I (see example numbers in Table 1) which is necessary in order to cause a contraction which corresponds to the IC50 value.

[2] = test system: muscle group (gastrocnemius, plantaris and soleus) of the immobilized right rear extremity; test: rat muscle function test: direct electrical stimulation of muscle group after 3 weeks' immobilization; format: in vivo, male Wistar rats; settings: oral, 1x per day for 3 weeks, as a rule 25 mg/kg, ≤-12% classified as active; for Work (performed work, right/left difference): isotonic stimulation, control approx. -25%; for Force (force under the contraction curve, right/left difference): isometric stimulation, control difference approx. 25%
Description: (§1) 1. Activity in the rat muscle function test
(§2) Male Wistar rats (body weight about 300 g) were kept under standard conditions with feed and water ad libitum. The right rear extremity was immobilized by fitting a kind of "shoe" to the animals under short-term anaesthesia. Two ergonomically fitted halves of the "shoe" were cast from a liquid plastic material which is also used for the production of dental prostheses, these were put onto the animal under brief anaesthesia and joined with the aid of a wire. The material is light but hard, so that the animals cannot gnaw the material, and the "shoe" can be opened at any time to examine the condition of the immobilized extremity. The two halves were moreover padded out with chamois leather in order to avoid compressions and possible injuries due to rubbing. The system also has the advantage that the angle of immobilization is standardized in all animals; this would not be possible with a plaster cast. The chosen angle allows the animals to take up a normal sitting position despite the "shoe" and also to carry the body weight using this extremity. Only complete stretching or bending of the leg is impossible.
(§3) After 3 weeks' immobilization of the right rear extremity and simultaneous oral administration of test preparations (1× per day using a stomach tube; as a rule 25 mg/kg of body weight, in carboxymethylcellulose, the animals were weighed and anaesthetized with pentobarbital (35 mg/kg i.p.). Functional parameters were measured during direct electrical stimulation of a muscle group (gastrocnemius, plantaris and soleus). This muscle group, merely called "muscle" in the following, was exposed at the ankle tendon and tied to a force transducer via the tendon.
To determine the contractile force, the muscles were stimulated isometrically, i.e. a preload of 0.5N was applied and the muscle was stimulated by means of a series of electrical pulses, which led to a maximum contraction, every 0.7 sec for 80 msec for a period of 15 min. […] The area under this contraction curve was evaluated and the difference in percent between the right atrophic and left normal muscle compared (force under the contraction curve as difference in percent (Δ%)). The difference in the control group is approximately 25%.
An isotonic muscle stimulation was used to determine the performed work of the muscle over time. In this type of measurement, the shortening of the muscle during contraction is used as a basis. To this end, a preload which corresponds to the body weight was applied to the muscles. A series of stimulation pulses (80 msec) were triggered every 3 sec and the muscle was stimulated for 15 min. The data (contraction force and distance travelled) were converted to the work performed in the unit J using an automated system. The difference in the work performed between the immobilized atrophic and the normal muscle in the control animals was approximately -25%.
Values which are positive indicate that the functional parameters of the immobilized muscle were better than those of the contralateral normal muscle.

[3] = test system: soleus muscle; test: rat muscle function test: muscle weight (atrophy of immobilized extremity); format: in vivo, male Wistar rats; settings: oral, 1x per day for 3 weeks, as a rule 25 mg/kg, difference ≤25% classified as an effect
Description: as §1, §2
In spite of this, a significant decrease in the skeletal muscle mass (atrophy) of the immobilized extremity occurred, to be precise up to -35% in comparison with the contralateral nonimmobilized rear extremity. As the soleus muscle was the most severely affected, the changes in muscle weight after administration of preparation shown in Table 1 relate to this muscle. A difference of ≤25% between the right immobilized and left non-immobilized rear extremity was classified as an effect.
as §3

[4] = test system: phosphodiesterase III; test: inhibition of phosphodiesterase III activity; format: biochemical; settings: at 100 μM
Experimental: 5. Inhibition of phosphodiesterase III activity
The test is carried out using phosphodiesterase from Boehringer Mannheim (Mannheim, Germany), Order No. 108 243 according to the method of T. SAEKI, I. SAITO, Biochem. Pharm. 46, No. 5, […], pages 833-839.
All numerical values are indicated in % inhibition of the enzyme activity at 100 μM of the corresponding compound of the formula I.

[5] = lung strips, PAF, cumulative, 37° C.

SMILES	IC50 [1]	Work (performed work, right/left difference) [2]	Muscle weight (right/left difference) [3]	Force (force under the contraction curve, right/left difference) [2]	IC50 [1, 5]	PDE III Inhibition [4]
CCOP(=O)(CCCCn1cnc2c1c(=O)n(C)c(=O)n2C)OCC [Example 1, Diethyl [4-(1,3-dimethylxanthin-7-yl)butyl]phosphonate]	3 to 9 µg/mL (≈ 8.06 to 24.2 µM)	-8 Δ %	–	–	–	–
CCOP(=O)(CCCCn1cnc2c1c(=O)[nH]c(=O)n2C)OCC [Example 3, Diethyl [4-(3-methylxanthin-7-yl)butyl]phosphonate]	–	0 Δ %	0 Δ %	0 Δ %	–	–
CCOP(=O)(CCCCn1cnc2c1c(=O)n(CCCCC(C)(C)O)c(=O)n2C)OCC [Example 5]	–	+10 Δ %	0 Δ %	+10 Δ %	–	–
CCOCn1c(=O)c2c(ncn2CCCCP(=O)(OCC)OCC)n(C)c1=O [Example 6, Diethyl [4-(1-ethoxymethyl-3-methylxanthin-7-yl)butyl]phosphonate]	–	-4 Δ %	0 Δ %	-4 Δ %	–	–
CCOP(=O)(CCCCn1c(=O)c2c(ncn2CCCCP(=O)(OCC)OCC)n(C)c1=O)OCC [Example 7, Diethyl 4-{7-[4-(diethoxyphosphoryl)butyl]-3-methylxanthin-1-yl}butyl-phosphonate]	3 to 6 µg/mL (≈ 5.45 to 10.9 µM)	–	–	–	–	–
CCOP(=O)(CCCn1cnc2c1c(=O)n(C)c(=O)n2C)OCC [Example 8, Diethyl [3-(1,3-dimethylxanthin-7-yl)propyl]phosphonate]	5 to 10 µg/mL (≈ 14 to 27.9 µM)	-7 Δ %	–	-11 Δ %	–	–
CCCCn1c(=O)c2c(ncn2CCCCCP(=O)(OCC)OCC)n(CCCC)c1=O [Example 10, Diethyl [5-(1,3-dibutylxanthin-7-yl)pentyl]phosphonate]	–	-9 Δ %	-13 Δ %	+1 Δ %	–	–
CCCn1c(=O)c2c(ncn2CCCCP(=O)(OCC)OCC)n(C)c1=O [Example 13]	6 to 10 µg/mL (≈ 15 to 25 µM)	-3 Δ %	-24 Δ %	+5 Δ %	–	–
CCOP(=O)(OCC)C(C)(C)CCCCn1c(=O)c2c(ncn2CCOC)n(C)c1=O [Example 22, Diethyl [5-(7-methoxyethyl-3-methylxanthin-1-yl)-1,1-dimethylpentyl]-phosphonate]	–	-13 Δ %	0 Δ %	-3 Δ %	–	–
Cn1c(=O)n(CCCCP(=O)(O)O)c(=O)c2[nH]cnc21 [Example 25, Diammonium [4-(3-methylxanthin-1-yl)butyl]phosphonate]	–	-12 Δ %	–	+7 Δ %	5 to 15 µg/mL	–
CCOCn1cnc2c1c(=O)n(CCCCP(=O)(OCC)OCC)c(=O)n2C [Example 26, Diethyl [4-(7-ethoxymethyl-3-methylxanthin-1-yl)butyl]phosphonate]	–	-17 Δ %	-22 Δ %	-3 Δ %	–	–
CCOCn1cnc2c1c(=O)n(CCCCP(=O)(O)O)c(=O)n2C.N.N [Example 28, Diammonium [4-(7-ethoxymethyl-3-methylxanthin-1-yl)butyl]phosphonate]	–	–	–	–	3 to 9 µg/mL	–
CCOP(=O)(CCCCn1c(=O)c2c(ncn2CCOC)n(C)c1=O)OCC [Example 31, Diethyl [4-(7-methoxyethyl-3-methylxanthin-1-yl)butyl]phosphonate]	6 to 10 µg/mL (≈ 14.4 to 24 µM)	–	–	–	–	–
CCOCn1cnc2c1c(=O)n(CCCP(=O)(OCC)OCC)c(=O)n2C [Example 36, Diethyl [3-(7-ethoxymethyl-3-methylxanthin-1-yl)propyl]phosphonate]	5 to 15 µg/mL (≈ 12.4 to 37.3 µM)	–	–	–	–	–
CCOP(=O)(CCCCn1c(=O)c2[nH]cnc2n(CC)c1=O)OCC [Example 37, Diethyl [4-(3-ethylxanthin-1-yl)butyl]phosphonate]	1 to 3 µg/mL (≈ 2.69 to 8.06 µM)	–	–	–	–	–
CCOP(=O)(CCCCn1c(=O)c2c(ncn2CCC(C)C)n(C)c1=O)OCC [Example 41, Diethyl {4-[7-(3-methylbutyl)-3-methylxanthin-1-yl)butyl]phosphonate]	–	–	–	–	–	56%
CCOP(=O)(CCCCn1c(=O)c2c(ncn2CCOC)n(CC)c1=O)OCC [Example 45, Diethyl [4-(3-ethyl-7-methoxyethylxanthin-1-yl)butyl]phosphonate]	1 to 3 µg/mL (≈ 2.32 to 6.97 µM)	–	–	–	–	–
CCOP(=O)(CCCCn1c(=O)c2c(ncn2CC2CC2)n(C)c1=O)OCC [Example 50, Diethyl [4-(7-cyclopropylmethyl-3-methylxanthin-1-yl)butyl]phosphonate]	–	–	–	–	–	51%
CCOCn1cnc2c1c(=O)n(CCCCP(=O)(OCC)OCC)c(=O)n2Cc1ccccc1 [Example 53, Diethyl [4-(3-benzyl-7-ethoxymethylxanthin-1-yl)butyl]phosphonate]	1 to 3 µg/mL (≈ 2.03 to 6.09 µM)	+10 Δ %	0 Δ %	-3 Δ %	–	–
CCOCn1cnc2c1c(=O)n(CCCCP(=O)(OCC)OCC)c(=O)n2CC [Example 54, Diethyl [4-(7-ethoxymethyl-3-ethylxanthin-1-yl)butyl]phosphonate]	1 to 3 µg/mL (≈ 2.32 to 6.97 µM)	–	–	–	–	–
CCOP(=O)(CCCCCn1c(=O)c2c(ncn2CCC(C)C)n(C)c1=O)OCC [Example 56]	–	0 Δ %	–	0 Δ %	–	–
CCCCn1c(=O)c2c(ncn2CP(C)(C)=O)n(CCCC)c1=O [Example 67, [1-(1,3-Dibutylxanthin-7-yl)methyl]dimethylphosphine Oxide]	–	-10 Δ %	–	-9 Δ %	–	–
CP(C)(=O)Cn1c(=O)c2c(ncn2CC2CC2)n(-c2ccccc2)c1=O [Example 71, [1-(7-Cyclopropylmethyl-3-phenylxanthin-1-yl)methyl]dimethylphosphine Oxide]	–	+5 Δ %	0 Δ %	+4 Δ %	–	–
CCCCn1cnc2c1c(=O)n(CP(C)(C)=O)c(=O)n2CCCC [Example 72, [1-(3,7-Dibutylxanthin-1-yl)methyl]dimethylphosphine Oxide]	–	+4 Δ %	-18 Δ %	-2 Δ %	–	–
